From patent publication US8030547B2, “Gene coding for acetolactate synthase” (priority 2002, dated 2011)

Key:
[1] = biological target: T1, GST fusion P171H/W548L/S627I mutant ALS protein (Oryza sativa subsp. japonica, UniProt Q6K2E8, P171H/S627I/W548L); assay: Herbicide sensitivity of ALS protein expressed in E. coli (crude enzyme solution), P171H/W548L/S627I; type: biochemical, rice (Oryza sativa var. Kinmaze); conditions: for RS ratio: P171H/W548L/S627I mutant vs wild type; for Predicted RS ratio / RS ratio/ predicted RS ratio: P171H/W548L/S627I mutant; for Predicted RS ratio: product of RS ratios of the 1-point mutants
T1 construct: made in house; host or cells: E. coli, pGEX-2T(ALS-P171H, W548L, S627I mutant); crude supernatant
Description: (§1) ALS activity resulting from the mutant ALS protein contained in the eluted fractions apportioned into each test tube for apportioning was measured as follows. A reaction solution to be used in a measurement reaction was prepared by mixing an eluted fraction to be measured with a solution comprising 20 mM sodium pyruvate, 0.5 mM TPP, 0.5 mM MgCl2, 10 μM FAD and 20 mM potassium phosphate buffer (pH 7.5). One ml of this reaction solution was used. After the eluted fraction to be measured was added, the measurement reaction was performed at 30° C. for 40 to 60 minutes. Then, the reaction was stopped by addition of 0.1 ml of 6N sulfuric acid (or 0.25 N sodium hydroxide).
(§2) After the reaction was stopped, the reaction solution was incubated at 60° C. for 10 minutes, thereby converting acetolactate contained in the reaction solution to acetoin.
(§3) Then, to quantify acetoin contained in the reaction solution, 1 ml of 0.5% (w/v) creatine and 1 ml of 5% (w/v) α-naphthol dissolved in 2.5 N sodium hydroxide was added to the reaction solution, followed by incubation at 37° C. for 10 minutes. Acetoin was then quantified by color comparison of the absorbance (at 525 nm) of the reaction solution, thereby evaluating ALS activity. In addition, since the reaction solution contained a small amount of sodium pyruvate, reaction time 0 was used as control.
(§4) E. coli transformed with pGEX-2T(ALS-wild) constructed in Example 3(5), E. coli transformed with pGEX-2T(ALS-W548L mutant) constructed in Example 5, E. coli transformed with pGEX-2T(ALS-S627I mutant) constructed in Example 5, E. coli transformed with pGEX-2T(ALS P171H mutant) constructed in Example 6, E. coli transformed with pGEX-2T(ALS R172S mutant) constructed in Example 6, E. coli transformed with pGEX-2T(ALS P171H, R172S mutant) constructed in Example 7, E. coli transformed with pGEX-2T(ALS-P171H, W548L mutant) constructed in Example 8, E. coli transformed with pGEX-2T(ALS-P171H, S627I mutant) constructed in Example 8, and E. coli transformed with pGEX-2T(ALS-P171H, W548L, S627I mutant) constructed in Example 9 were respectively shake-cultured (pre-culture) at 27° C. in 2 ml of LB liquid medium containing ampicillin. These types of E. coli were respectively cultured in 250 ml of LB liquid medium containing ampicillin using 1 ml of the pre-culture solution. After culturing overnight, 1 mM IPTG was added to the media, and then culturing was performed for a further 3 to 4 hours, so that the expression of GST fusion protein was induced. In addition, the cells were stored at −80° C. after washing.
(§5) Preparation and purification of ALS from E. coli were performed by the following method. First, the pellet of the transformant E. coli stored at −80° C. was suspended in ALS extraction buffer (potassium phosphate buffer (pH 7.5) containing 30% glycerol and 0.5 mM MgCl2). Specifically, 2.5 ml of the buffer was added to the pellet obtained from 50 ml of the culture solution. The suspension was subjected to ultrasonication (Heat Systems-Ultrasonics, Sonicator W-225R, micro chip, output control 8, interval of approximately 1 second, twice (40 seconds each)), and subjected to centrifugation at 15000×g, 4° C. for 20 minutes, thereby obtaining the supernatant as a crude enzyme solution.
(§6) Herbicide sensitivity of the wild type ALS protein and that of mutant ALS protein were examined using the 9 types of crude enzyme solutions obtained in Example 10. Herbicide sensitivity test was performed according to procedures almost the same as those in Example 2. However, in this example, reaction temperature was 37° C., reaction time was 30 minutes, and 10 mM valine was added to the reaction solution to inhibit ALS activity derived from E. coli. Further, three types of herbicides, bispyribac-sodium, pyrithiobac-sodium, and pyriminobac, were used as PC herbicides; chlorsulfuron was used as a sulfonylurea herbicide; and imazaquin was used as an imidazolinon herbicide. […]

[2] = biological target: T2, GST fusion P171H/S627I mutant ALS protein (Oryza sativa subsp. japonica, UniProt Q6K2E8, P171H/S627I); assay: Herbicide sensitivity of ALS protein expressed in E. coli (crude enzyme solution), P171H/S627I; type: biochemical, rice (Oryza sativa var. Kinmaze); conditions: for RS ratio/ predicted RS ratio / Predicted RS ratio: P171H/S627I mutant; for RS ratio: P171H/S627I mutant vs wild type; for Predicted RS ratio: product of RS ratios of the 1-point mutants
T2 construct: made in house; host or cells: E. coli, pGEX-2T(ALS-P171H, S627I mutant); crude supernatant
Description: as §1, §2, §3, §4, §5, §6

[3] = read-out: inhibition % at the highest concentration among the concentrations tested

T1 sequence (Q6K2E8 44-644 P171H/W548L/S627I): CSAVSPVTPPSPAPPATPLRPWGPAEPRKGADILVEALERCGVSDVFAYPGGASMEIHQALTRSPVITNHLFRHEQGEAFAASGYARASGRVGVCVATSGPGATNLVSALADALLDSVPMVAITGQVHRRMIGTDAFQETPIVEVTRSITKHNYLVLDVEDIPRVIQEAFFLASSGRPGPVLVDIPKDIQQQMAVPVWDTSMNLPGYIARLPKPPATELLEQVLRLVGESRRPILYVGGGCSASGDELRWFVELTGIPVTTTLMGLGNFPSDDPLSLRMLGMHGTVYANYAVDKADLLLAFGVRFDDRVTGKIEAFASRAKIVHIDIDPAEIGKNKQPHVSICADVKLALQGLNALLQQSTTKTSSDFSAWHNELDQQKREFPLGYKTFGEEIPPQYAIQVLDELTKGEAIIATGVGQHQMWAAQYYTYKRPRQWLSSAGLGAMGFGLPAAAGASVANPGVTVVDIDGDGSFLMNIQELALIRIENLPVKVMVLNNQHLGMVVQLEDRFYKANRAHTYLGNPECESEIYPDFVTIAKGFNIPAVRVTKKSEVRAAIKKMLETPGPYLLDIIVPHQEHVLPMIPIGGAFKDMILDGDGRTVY
T2 sequence (Q6K2E8 44-644 P171H/S627I): as the sequence (Q6K2E8 44-644 P171H/W548L/S627I) above, with L505W counted along it

Row | SMILES | RS ratio [1] | Predicted RS ratio [1] | inhibition at 100 µM [1, 3] [%] | IC50 [2] [µM] | RS ratio/ predicted RS ratio [2] | RS ratio [2] | Predicted RS ratio [2] | RS ratio/ predicted RS ratio [1] | inhibition at 500 µM [1, 3] [%]
1 | CC(C)C1(C)N=C(c2nc3ccccc3cc2C(=O)O)NC1=O (stereo not shown) [imazaquin] | >45 | >460 | 15 | 71 | 3.2 | 32 | 10 |  | 
2 | COc1nc(C)nc(NC(=O)NS(=O)(=O)c2ccccc2Cl)n1 [chlorsulfuron] |  | 160000 |  | 9.9 | 3.8 | 760 | 200 | >0.24 | 30
3 | COc1cc(OC)nc(Oc2cccc(Oc3nc(OC)cc(OC)n3)c2C(=O)O)n1 [bispyribac-sodium] | >16000 | 190000 | 1.1 | 23 | 10 | 3700 | 360 | >0.084 | 
